According to patent publication US11242337B2, “Compounds useful for treating gastrointestinal tract disorders” (Ardelyx, Inc., priority 2017, dated 2022):
Structures can show the parent of a compound that is named as a salt.

Assays:
NHE3 [1] = biological target: T1, NHE3 (Homo sapiens, UniProt P48764); assay: Cell-based assay of NHE-3 activity (persistent inhibition), human; details: human Persistence, 60 min incubation then washout
T1 construct: expressed in transfected cells
T1 sequence (P48764 26-834): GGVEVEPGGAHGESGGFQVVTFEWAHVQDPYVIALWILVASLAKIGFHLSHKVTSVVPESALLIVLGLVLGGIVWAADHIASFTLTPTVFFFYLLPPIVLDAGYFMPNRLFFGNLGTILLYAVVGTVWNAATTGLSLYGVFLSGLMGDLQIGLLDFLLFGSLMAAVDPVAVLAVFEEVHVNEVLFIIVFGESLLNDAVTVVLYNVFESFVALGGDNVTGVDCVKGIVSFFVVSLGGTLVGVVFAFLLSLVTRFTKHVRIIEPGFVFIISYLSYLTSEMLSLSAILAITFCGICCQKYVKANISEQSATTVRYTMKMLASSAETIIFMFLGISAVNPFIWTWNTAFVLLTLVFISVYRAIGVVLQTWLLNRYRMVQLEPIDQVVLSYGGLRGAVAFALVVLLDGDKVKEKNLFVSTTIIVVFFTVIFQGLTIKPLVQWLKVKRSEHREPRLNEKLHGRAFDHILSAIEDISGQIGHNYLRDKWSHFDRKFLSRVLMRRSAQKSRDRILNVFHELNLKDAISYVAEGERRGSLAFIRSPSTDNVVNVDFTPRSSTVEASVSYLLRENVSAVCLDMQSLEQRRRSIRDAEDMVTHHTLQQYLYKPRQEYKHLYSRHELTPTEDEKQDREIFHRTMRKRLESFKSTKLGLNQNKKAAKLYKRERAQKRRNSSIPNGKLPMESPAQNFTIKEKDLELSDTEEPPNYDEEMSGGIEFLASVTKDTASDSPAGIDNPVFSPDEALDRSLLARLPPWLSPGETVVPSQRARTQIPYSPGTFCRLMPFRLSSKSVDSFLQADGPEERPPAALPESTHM
T1 sequence (Q99653 2-195 partner limits assumed): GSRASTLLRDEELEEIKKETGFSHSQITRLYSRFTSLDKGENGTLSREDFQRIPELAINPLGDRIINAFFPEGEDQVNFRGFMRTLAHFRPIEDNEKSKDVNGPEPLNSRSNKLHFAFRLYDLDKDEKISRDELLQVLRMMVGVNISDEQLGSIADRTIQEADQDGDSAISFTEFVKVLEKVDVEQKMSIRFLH
In short: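 Persistent inhibition: compound (0-30 μM, 60 min, RT, NaCl-HEPES pH 7.4) removed before assay. Human NHE3/NHERF2 PS120 cells were then BCECF-loaded during NH4Cl pulse (30 min, 37 °C), acidified in Na+-free buffer, and Na+ added 10 min after washout; antiport measured as initial fluorescence-ratio change per minute.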

NHE3 [2] = biological target: T1, NHE3; assay: Cell-based assay of NHE-3 activity (pre-incubation inhibition), human; details: human Preincubation; for IC50 / pIC50: 0-30 μM test compound
In short: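 Activity read as initial rate of BCECF fluorescence ratio change per minute (ex 439/505, em 538 nm) following NH4Cl prepulse acid loading. Compound (0–30 μM) present during 10 min Na+-free acidification at room temperature; cells were PS120 fibroblasts stably co-expressing human NHE3 and NHERF2.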

| SMILES | % inhibition (NHE3 [1]) | IC50 (NHE3 [1]) [µM] | % inhibition (NHE3 [2]) | IC50 (NHE3 [2]) [µM] | pIC50 (NHE3 [1]) | pIC50 (NHE3 [2]) |
| --- | --- | --- | --- | --- | --- | --- |
| N[C@@H]1CCCN([C@H]2Cc3c(Cl)cc(Cl)cc3[C@@H]2Oc2ccc(S(=O)(=O)N3CC[C@@H](OCCOCCNC(=O)NCCCCNC(=O)NCCOCCO[C@@H]4CCN(S(=O)(=O)c5ccc(O[C@H]6c7cc(Cl)cc(Cl)c7C[C@@H]6N6CCC[C@@H](N)C6)cc5)C4)C3)cc2)C1 [Example 93, 3-[2-(2-[[(3R)-1-[(4-[[(1S,2S)-2-[(3R)-3-Aminopiperidin-1-yl]-4,6-dichloro-2,3-dihydro-1H-inden-1-yl]oxy]benzene)sulfonyl]pyrrolidin-3-yl]oxy]ethoxy)ethyl]-1-[4-([[2-(2-[[(3R)-1-[(4-[[(1S,2S)-2-[(3R)-3-aminopiperidin-1-yl]-4,6-dichloro-2,3-dihydro-1H-inden-1-yl]oxy]benzene)sulfonyl]pyrrolidin-3-yl]oxy]ethoxy)ethyl]carbamoyl]amino)butyl]urea] | C (>70%) | < 0.1 | C (>70%) | < 0.1 |  |  |
| N[C@@H]1CCCN([C@H]2Cc3c(Cl)cc(Cl)cc3[C@@H]2Oc2ccc(S(=O)(=O)N3CC[C@H](OCCOCCNC(=O)NCCCCNC(=O)NCCOCCO[C@H]4CCN(S(=O)(=O)c5ccc(O[C@H]6c7cc(Cl)cc(Cl)c7C[C@@H]6N6CCC[C@@H](N)C6)cc5)C4)C3)cc2)C1 [Example 94, 3-[2-(2-[[(3S)-1-[(4-[[(1S,2S)-2-[(3R)-3-Aminopiperidin-1-yl]-4,6-dichloro-2,3-dihydro-1H-inden-1-yl]oxy]benzene)sulfonyl]pyrrolidin-3-yl]oxy]ethoxy)ethyl]-1-[4-([[2-(2-[[(3S)-1-[(4-[[(1S,2S)-2-[(3R)-3-aminopiperidin-1-yl]-4,6-dichloro-2,3-dihydro-1H-inden-1-yl]oxy]benzene)sulfonyl]pyrrolidin-3-yl]oxy]ethoxy)ethyl]carbamoyl]amino)butyl]urea] | C (>70%) |  | C (>70%) |  | C (NHE3 pIC50 > 7) | C (NHE3 pIC50 > 7) |
| N[C@@H]1CCCN([C@H]2Cc3c(Cl)cc(Cl)cc3[C@@H]2Oc2ccc(S(=O)(=O)N3CCC(OCCOCCNC(=O)NCCCCNC(=O)NCCOCCOC4CCN(S(=O)(=O)c5ccc(O[C@H]6c7cc(Cl)cc(Cl)c7C[C@@H]6N6CCC[C@@H](N)C6)cc5)CC4)CC3)cc2)C1 [Example 95, 3-[2-[2-([1-[(4-[[(1S,2S)-2-[(3R)-3-Aminopiperidin-1-yl]-4,6-dichloro-2,3-dihydro-1H-inden-1-yl]oxy]benzene)sulfonyl]piperidin-4-yl]oxy)ethoxy]ethyl]-1-[4-[([2-[2-([1-[(4-[[(1S,2S)-2-[(3R)-3-aminopiperidin-1-yl]-4,6-dichloro-2,3-dihydro-1H-inden-1-yl]oxy]benzene)sulfonyl]piperidin-4-yl]oxy)ethoxy]ethyl]carbamoyl)amino]butyl]urea] | C (>70%) |  | C (>70%) |  | C (NHE3 pIC50 > 7) | C (NHE3 pIC50 > 7) |
| C[C@@H](COCCOCCNC(=O)NCCCCNC(=O)NCCOCCOC[C@H](C)NS(=O)(=O)c1ccc(O[C@H]2c3cc(Cl)cc(Cl)c3C[C@@H]2N2CCC[C@@H](N)C2)cc1)NS(=O)(=O)c1ccc(O[C@H]2c3cc(Cl)cc(Cl)c3C[C@@H]2N2CCC[C@@H](N)C2)cc1 [Example 96, 1-(2-[2-[(2S)-2-[(4-[[(1S,2S)-2-[(3R)-3-Aminopiperidin-1-yl]-4,6-dichloro-2,3-dihydro-1H-inden-1-yl]oxy]benzene)sulfonamido]propoxy]ethoxy]ethyl)-3-(4-[[(2-[2-[(2S)-2-[(4-[[(1S,2S)-2-[(3R)-3-aminopiperidin-1-yl]-4,6-dichloro-2,3-dihydro-1H-inden-1-yl]oxy]benzene)sulfonamido]propoxy]ethoxy]ethyl)carbamoyl]amino]butyl)urea; hydrochloride] | C (>70%) | < 0.1 | C (>70%) | < 0.1 |  |  |
| C[C@H](COCCOCCNC(=O)NCCCCNC(=O)NCCOCCOC[C@@H](C)NS(=O)(=O)c1ccc(O[C@H]2c3cc(Cl)cc(Cl)c3C[C@@H]2N2CCC[C@@H](N)C2)cc1)NS(=O)(=O)c1ccc(O[C@H]2c3cc(Cl)cc(Cl)c3C[C@@H]2N2CCC[C@@H](N)C2)cc1 [Example 97, 3-(2-[2-[(2R)-2-[(4-[[(1S,2S)-2-[(3R)-3-Aminopiperidin-1-yl]-4,6-dichloro-2,3-dihydro-1H-inden-1-yl]oxy]benzene)sulfonamido]propoxy]ethoxy]ethyl)-1-(4-[[(2-[2-[(2R)-2-[(4-[[(1S,2S)-2-[(3R)-3-aminopiperidin-1-yl]-4,6-dichloro-2,3-dihydro-1H-inden-1-yl]oxy]benzene)sulfonamido]propoxy]ethoxy]ethyl)carbamoyl]amino]butyl)urea] | C (>70%) |  | C (>70%) |  | C (NHE3 pIC50 > 7) | C (NHE3 pIC50 > 7) |
| CC(C)[C@@H](COCCOCCNC(=O)NCCCCNC(=O)NCCOCCOC[C@@H](NS(=O)(=O)c1ccc(O[C@H]2c3cc(Cl)cc(Cl)c3C[C@@H]2N2CCC[C@@H](N)C2)cc1)C(C)C)NS(=O)(=O)c1ccc(O[C@H]2c3cc(Cl)cc(Cl)c3C[C@@H]2N2CCC[C@@H](N)C2)cc1 [Example 98, 3-(2-[2-[(2S)-2-[(4-[[(1S,2S)-2-[(3R)-3-Aminopiperidin-1-yl]-4,6-dichloro-2,3-dihydro-1H-inden-1-yl]oxy]benzene)sulfonamido]-3-methylbutoxy]ethoxy]ethyl)-1-(4-[[(2-[2-[(2S)-2-[(4-[[(1S,2S)-2-[(3R)-3-aminopiperidin-1-yl]-4,6-dichloro-2,3-dihydro-1H-inden-1-yl]oxy]benzene)sulfonamido]-3-methylbutoxy]ethoxy]ethyl)carbamoyl]amino]butyl)urea dihydrochloride] | C (>70%) |  | C (>70%) |  | C (NHE3 pIC50 > 7) | C (NHE3 pIC50 > 7) |
| CC(C)[C@H](COCCOCCNC(=O)NCCCCNC(=O)NCCOCCOC[C@H](NS(=O)(=O)c1ccc(O[C@H]2c3cc(Cl)cc(Cl)c3C[C@@H]2N2CCC[C@@H](N)C2)cc1)C(C)C)NS(=O)(=O)c1ccc(O[C@H]2c3cc(Cl)cc(Cl)c3C[C@@H]2N2CCC[C@@H](N)C2)cc1 [Example 99, 3-(2-[2-[(2R)-2-[(4-[[(1S,2S)-2-[(3R)-3-Aminopiperidin-1-yl]-4,6-dichloro-2,3-dihydro-1H-inden-1-yl]oxy]benzene)sulfonamido]-3-methylbutoxy]ethoxy]ethyl)-1-(4-[[(2-[2-[(2R)-2-[(4-[[(1S,2S)-2-[(3R)-3-aminopiperidin-1-yl]-4,6-dichloro-2,3-dihydro-1H-inden-1-yl]oxy]benzene)sulfonamido]-3-methylbutoxy]ethoxy]ethyl)carbamoyl]amino]butyl)urea] | C (>70%) | 0.1 to 1 | C (>70%) |  |  | C (NHE3 pIC50 > 7) |
| CC(C)(COCCOCCNC(=O)NCCCCNC(=O)NCCOCCOCC(C)(C)NS(=O)(=O)c1ccc(O[C@H]2c3cc(Cl)cc(Cl)c3C[C@@H]2N2CCC[C@@H](N)C2)cc1)NS(=O)(=O)c1ccc(O[C@H]2c3cc(Cl)cc(Cl)c3C[C@@H]2N2CCC[C@@H](N)C2)cc1 [Example 100, 1-[2-(2-[2-[(4-[[(1S,2S)-2-[(3R)-3-Aminopiperidin-1-yl]-4,6-dichloro-2,3-dihydro-1H-inden-1 yl]oxy]benzene)sulfonamido]-2-methylpropoxy]ethoxy)ethyl]-3-[4-([[2-(2-[2-[(4-[[(1S,2S)-2-[(3R)-3-aminopiperidin-1-yl]-4,6-dichloro-2,3-dihydro-1H-inden-1-yl]oxy]benzene)sulfonamido]-2-methylpropoxy]ethoxy)ethyl]carbamoyl]amino)butyl]urea; hydrochloride] | C (>70%) |  | C (>70%) |  | C (NHE3 pIC50 > 7) | C (NHE3 pIC50 > 7) |
